Measured values from patent publication US20250171432A1, “COMPOUNDS AND METHODS OF USE” (Tango Therapeutics, Inc., priority 2022, published 2025).

Columns and labels:
Assay type in all cases: cell-based
[1] = system: SDMA (PRMT5 activity) in HAP1 MTAP-intact cell line; experiment: SDMA in-cell western assay, HAP1 MTAP-intact; conditions: SDMA in-cell western, HAP1 MTAP-intact cells, 24 hours compound incubation
[2] = system: SDMA (PRMT5 activity) in HAP1 MTAP-deleted cell line; experiment: SDMA in-cell western assay, HAP1 MTAP-deleted; conditions: for IC50 / IC90: SDMA in-cell western, HAP1 MTAP-deleted cells, 24 hours compound incubation; for Hap1 MTAP intact/deleted ratio: ratio of SDMA IC50 in HAP1 MTAP-intact to HAP1 MTAP-deleted cell line
[3] = system: HAP1 MTAP-deleted cell line; experiment: Viability assay (CellTiter-Glo), HAP1 MTAP-deleted; conditions: HAP1 MTAP-deleted cells, 7 days
Outline: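 HAP1 MTAP-deleted and MTAP-intact cells seeded, then dosed next day (n=3, 0.2% DMSO) and grown 7 days. Viability by CellTiter-Glo luminescence, expressed as % of DMSO control per cell line.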

Structure (SMILES) | IC50 ([1]; Homo sapiens, HAP1, 24 h) | IC50 ([2]; Homo sapiens) | IC90 ([2]; Homo sapiens) | Hap1 MTAP intact/deleted ratio [2] | IC50 ([3]; Homo sapiens, 168 h) | IC50 [1] | IC50 [2] | IC90 [2] | IC50 [3] | IC50 ([1]; Homo sapiens)
COc1ncc(NC(=O)C(=O)N2C[C@@H](C)CC[C@@H]2c2ccc3sc(CC(C)N4CCCC4)nc3c2)cc1C(N)=O (mixture of isomers) [Compound 57, 2-methoxy-5-(2-((2R,5S)-5-methyl-2-(2-(2-(pyrrolidin-1-yl)propyl)benzo[d]thiazol-5-yl)piperidin-1-yl)-2-oxoacetamido)nicotinamide] | > 50 nM | < 5 nM | < 75 nM | A (“A” indicates an IC50 ratio greater than or equal to 30 fold) | < 100 nM | – | – | – | – | –
CCc1cc(NC(=O)C(=O)N2C[C@@H](C)CC[C@@H]2c2ccc3cc(C#N)cnc3c2)cnc1N [Compound 54] | > 50 nM | 5 to 50 nM | > 125 nM | A (“A” indicates an IC50 ratio greater than or equal to 30 fold) | 100 to 1000 nM | – | – | – | – | –
COc1ncc(NC(=O)C(=O)N2C[C@@H](C)CC[C@@H]2c2ccc3sc([C@H]4C[C@H](N(C)C)C4)nc3c2)cc1C(N)=O (single isomer, unassigned) [Compound 50] | > 50 nM | < 5 nM | < 75 nM | A (“A” indicates an IC50 ratio greater than or equal to 30 fold) | < 100 nM | – | – | – | – | –
COc1ncc(NC(=O)C(=O)N2C[C@@H](C)CC[C@@H]2c2ccc3sc(C[C@H]4CCN(C)C[C@@H]4C)nc3c2)cc1C(N)=O (racemic) [Compound 64, 5-(2-((2R,5S)-2-(2-((1,3-dimethylpiperidin-4-yl)methyl)benzo[d]thiazol-5-yl)-5-methylpiperidin-1-yl)-2-oxoacetamido)-2-methoxynicotinamide] | > 50 nM | < 5 nM | < 75 nM | A (“A” indicates an IC50 ratio greater than or equal to 30 fold) | < 100 nM | – | – | – | – | –
CCc1cc(NC(=O)C(=O)N2C[C@@H](C)CC[C@@H]2c2ccc(F)c(OCCN(C)C)c2)cnc1N [Compound 128, N-(6-amino-5-ethylpyridin-3-yl)-2-((2R,5S)-2-(3-(2-(dimethylamino)ethoxy)-4-fluorophenyl)-5-methylpiperidin-1-yl)-2-oxoacetamide] | > 50 nM | 5 to 50 nM | > 125 nM | A (“A” indicates an IC50 ratio greater than or equal to 30 fold) | < 100 nM | – | – | – | – | –
CCc1cc(NC(=O)C(=O)N2C[C@@H](C)CC[C@@H]2c2ccc3sc([C@@H]4C[C@@H]5CN(C)C[C@@H]5C4)nc3c2)cnc1N (single isomer, unassigned) [Compound 111] | > 50 nM | < 5 nM | < 75 nM | B (“B” indicates an IC50 ratio greater than or equal to 15 fold but lower than 30 fold) | < 100 nM | – | – | – | – | –
COc1ncc(NC(=O)C(=O)N2C[C@@H](C)CC[C@@H]2c2ccc3sc([C@@H]4CN(C)C(C)(C)C4)nc3c2)cc1C(N)=O (single isomer, unassigned) [Compound 30] | > 50 nM | < 5 nM | < 75 nM | B (“B” indicates an IC50 ratio greater than or equal to 15 fold but lower than 30 fold) | < 100 nM | – | – | – | – | –
CCc1cc(NC(=O)C(=O)N2C[C@@H](C)CC[C@@H]2c2ccc3cn([C@H]4CCCN(C)C4)nc3c2)cnc1N [Compound 104] | > 50 nM | < 5 nM | < 75 nM | B (“B” indicates an IC50 ratio greater than or equal to 15 fold but lower than 30 fold) | < 100 nM | – | – | – | – | –
COc1ncc(NC(=O)C(=O)N2C[C@@H](C)CC[C@@H]2c2cccc(OC[C@H](C)N(C)C)c2)cc1C(N)=O [Compound 37, 5-(2-((2R,5S)-2-(3-((S)-2-(dimethylamino)propoxy)phenyl)-5-methylpiperidin-1-yl)-2-oxoacetamido)-2-methoxynicotinamide] | > 50 nM | 5 to 50 nM | 75 to 125 nM | A (“A” indicates an IC50 ratio greater than or equal to 30 fold) | < 100 nM | – | – | – | – | –
COc1ncc(NC(=O)C(=O)N2C[C@@H](C)CC[C@@H]2c2ccc3cn([C@H]4CCN(C)C4)nc3c2)cc1C(N)=O [Compound 103, 2-methoxy-5-(2-((2R,5S)-5-methyl-2-(2-((S)-1-methylpyrrolidin-3-yl)-2H-indazol-6-yl)piperidin-1-yl)-2-oxoacetamido)nicotinamide] | > 50 nM | < 5 nM | < 75 nM | A (“A” indicates an IC50 ratio greater than or equal to 30 fold) | < 100 nM | – | – | – | – | –
COc1ncc(NC(=O)C(=O)N2C[C@@H](C)CC[C@@H]2c2ccc3sc([C@H]4CN(C)CCO4)nc3c2)cc1C(N)=O [Compound 124] | > 50 nM | 5 to 50 nM | > 125 nM | A (“A” indicates an IC50 ratio greater than or equal to 30 fold) | 100 to 1000 nM | – | – | – | – | –
Cc1cc2[nH]c(C(=O)N3C[C@@H](C)CC[C@@H]3c3ccc4sc(C5CCN(C)CC5)nc4c3)cc2nc1N [Compound 110, (5-amino-6-methyl-1H-pyrrolo[3,2-b]pyridin-2-yl)((2R,5S)-5-methyl-2-(2-(1-methylpiperidin-4-yl)benzo[d]thiazol-5-yl)piperidin-1-yl)methanone] | > 50 nM | < 5 nM | < 75 nM | A (“A” indicates an IC50 ratio greater than or equal to 30 fold) | < 100 nM | – | – | – | – | –
CCc1cc(NC(=O)C(=O)N2C[C@@H](C)CC[C@@H]2c2ccc3cn(C4CCOCC4)nc3c2)cnc1N [Compound 17, N-(6-amino-5-ethyl-3-pyridyl)-2-oxo-2-[(2R,5S)-5-methyl-2-(2-tetrahydropyran-4-ylindazol-6-yl)-1-piperidyl]acetamide] | > 50 nM | 5 to 50 nM | < 75 nM | A (“A” indicates an IC50 ratio greater than or equal to 30 fold) | < 100 nM | – | – | – | – | –
CCc1cc(NC(=O)C(=O)N2C[C@@H](C)CC[C@@H]2c2ccc3nn([C@H]4CCN(C)C(C)(C)C4)cc3c2)cnc1N [Compound 44] | 5 to 50 nM | < 5 nM | < 75 nM | B (“B” indicates an IC50 ratio greater than or equal to 15 fold but lower than 30 fold) | < 100 nM | – | – | – | – | –
C[C@H]1CC[C@H](c2ccc3sc(C4CCN(C)CC4)nc3c2)N(C(=O)C(=O)Nc2cnc(F)c(C(N)=O)c2)C1 [Compound 8, 2-fluoro-5-(2-((2R,5S)-5-methyl-2-(2-(1-methylpiperidin-4-yl)benzo[d]thiazol-5-yl)piperidin-1-yl)-2-oxoacetamido)nicotinamide] | > 50 nM | < 5 nM | < 75 nM | B (“B” indicates an IC50 ratio greater than or equal to 15 fold but lower than 30 fold) | < 100 nM | – | – | – | – | –
CCc1cc(NC(=O)C(=O)N2C[C@@H](C)CC[C@@H]2c2ccc3cn(C4CN(C)CC(C)(C)C4)nc3c2)cnc1N (single isomer, unassigned) [Compound 114] | – | – | – | B (“B” indicates an IC50 ratio greater than or equal to 15 fold but lower than 30 fold) | – | 5 to 50 nM | < 5 nM | < 75 nM | < 100 nM | –
CCc1cc(NC(=O)C(=O)N2C[C@@H](C)CC[C@@H]2c2ccc3sc([C@@H]4C[C@@H]5CC(F)(F)C[C@H](C4)N5C)nc3c2)cnc1N [Compound 91, N-(6-amino-5-ethylpyridin-3-yl)-2-((2R,5S)-2-(2-(7,7-difluoro-9-methyl-9-azabicyclo[3.3.1]nonan-3-yl)benzo[d]thiazol-5-yl)-5-methylpiperidin-1-yl)-2-oxoacetamide] | – | < 5 nM | < 75 nM | A (“A” indicates an IC50 ratio greater than or equal to 30 fold) | < 100 nM | – | – | – | – | > 50 nM
C[C@H]1CC[C@H](c2ccc3scnc3c2)N(C(=O)C(=O)Nc2cnc(N)c(I)c2)C1 [Compound 51, N-(6-amino-5-iodopyridin-3-yl)-2-((2R,5S)-2-(benzo[d]thiazol-5-yl)-5-methylpiperidin-1-yl)-2-oxoacetamide] | – | < 5 nM | 75 to 125 nM | A (“A” indicates an IC50 ratio greater than or equal to 30 fold) | 100 to 1000 nM | – | – | – | – | > 50 nM
COc1ncc(NC(=O)C(=O)N2C[C@@H](C)CC[C@@H]2c2ccc3sc(C4=C(C)CN(C)CC4)nc3c2)cc1C(N)=O [Compound 61, 5-(2-((2R,5S)-2-(2-(1,5-dimethyl-1,2,3,6-tetrahydropyridin-4-yl)benzo[d]thiazol-5-yl)-5-methylpiperidin-1-yl)-2-oxoacetamido)-2-methoxynicotinamide] | – | < 5 nM | < 75 nM | A (“A” indicates an IC50 ratio greater than or equal to 30 fold) | < 100 nM | – | – | – | – | > 50 nM
CCc1cc(NC(=O)C(=O)N2C[C@@H](C)CC[C@@H]2c2ccc3cn([C@H]4CCN(C)C4)nc3c2)cnc1N [Compound 117, N-(6-amino-5-ethylpyridin-3-yl)-2-((2R,5S)-5-methyl-2-(2-((S)-1-methylpyrrolidin-3-yl)-2H-indazol-6-yl)piperidin-1-yl)-2-oxoacetamide] | > 50 nM | 5 to 50 nM | < 75 nM | C (“C” indicates an IC50 ratio of less than 15 fold) | < 100 nM | – | – | – | – | –
